According to patent US11999727B2 (Tango Therapeutics, Inc., priority 2020, dated 2024):
Where two headings read alike, the source gives them in different places.

How the values were obtained:
PRMT5 [1] = target: T1, PRMT5 (Homo sapiens, UniProt O14744); assay: PRMT5 biochemical IC50 assay with SAM as cofactor; conditions: PRMT5, SAM as cofactor; read-out: SAM IC50
T1 construct: purchased Viva (custom protein)

PRMT5 [2] = target: T1, PRMT5; assay: PRMT5 biochemical IC50 assay with no cofactor; conditions: PRMT5, no cofactor; read-out: No Cofactor/ rel IC50
Excerpt: Table 1 indicates IC50 values (μM) against PRMT5 for exemplary compounds in the presence of SAM as cofactor, with no cofactor, and with MTA as cofactor, respectively (columns 4-6). […] Ki values can be calculated from the IC50 values as described in the Examples section. As detailed in the Examples section, for the assay performed in the presence of SAM, IC50=Ki×1.5 (Ki=IC50/1.5).

PRMT5 [3] = target: T1, PRMT5; assay: PRMT5 biochemical IC50 assay with MTA as cofactor; conditions: PRMT5, MTA as cofactor; read-out: MTA IC50
[4] = system: HAP1 MTAP-intact cell line; assay: SDMA in-cell western assay, HAP1 MTAP-intact; type: cell-based; conditions: HAP1 MTAP-intact, read-out: MTAP HAP1 intact IC50
Outline: (§1)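 Readout: in-cell western detection of SDMA. Cells: HAP1 expressing endogenous MTAP and an MTAP-null HAP1 counterpart. Output: IC50.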

[5] = system: HAP1 MTAP-deleted cell line; assay: SDMA in-cell western assay, HAP1 MTAP-deleted; type: cell-based; conditions: for IC50: HAP1 MTAP-deleted, read-out: HAP 1 MTAP deleted IC50; for MTAP intact/deleted ratio: IC50 ratio HAP1 MTAP-intact / HAP1 MTAP-deleted
Outline: as §1

[6] = system: HAP1 MTAP-deleted cell line; assay: Viability assay, MTAP-deleted cell line; type: cell-based; conditions: MTAP-deleted cell line, read-out: HAP1 MTAP deleted viability
Excerpt: Table 1 additionally indicates IC50 values in a viability assay for the MTAP-deleted cell line (column 10), indicating the effect of treatment with compound on cell survival.

[7] = Homo sapiens, HAP1, SDMA in-cell western
[8] = Homo sapiens, HAP1, viability assay

T1 sequence (O14744 whole entry): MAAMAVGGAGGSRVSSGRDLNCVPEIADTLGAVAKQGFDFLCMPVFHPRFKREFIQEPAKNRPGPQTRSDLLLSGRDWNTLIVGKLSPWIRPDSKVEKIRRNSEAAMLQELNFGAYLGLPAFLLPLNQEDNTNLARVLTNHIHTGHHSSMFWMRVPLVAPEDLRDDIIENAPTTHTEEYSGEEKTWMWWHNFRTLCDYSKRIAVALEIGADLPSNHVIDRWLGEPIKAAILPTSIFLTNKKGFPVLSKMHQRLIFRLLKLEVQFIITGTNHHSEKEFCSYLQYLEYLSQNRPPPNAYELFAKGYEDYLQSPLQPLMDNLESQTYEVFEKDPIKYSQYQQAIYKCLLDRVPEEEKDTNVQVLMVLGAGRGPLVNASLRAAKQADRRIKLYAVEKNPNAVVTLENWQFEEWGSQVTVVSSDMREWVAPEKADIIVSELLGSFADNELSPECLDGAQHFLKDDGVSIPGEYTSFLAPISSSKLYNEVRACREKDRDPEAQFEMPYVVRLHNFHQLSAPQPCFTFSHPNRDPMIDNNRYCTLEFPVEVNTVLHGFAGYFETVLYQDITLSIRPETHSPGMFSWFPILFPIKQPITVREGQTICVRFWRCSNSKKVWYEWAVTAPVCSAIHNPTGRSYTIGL
T1 sequence (Q9BQA1 whole entry partner): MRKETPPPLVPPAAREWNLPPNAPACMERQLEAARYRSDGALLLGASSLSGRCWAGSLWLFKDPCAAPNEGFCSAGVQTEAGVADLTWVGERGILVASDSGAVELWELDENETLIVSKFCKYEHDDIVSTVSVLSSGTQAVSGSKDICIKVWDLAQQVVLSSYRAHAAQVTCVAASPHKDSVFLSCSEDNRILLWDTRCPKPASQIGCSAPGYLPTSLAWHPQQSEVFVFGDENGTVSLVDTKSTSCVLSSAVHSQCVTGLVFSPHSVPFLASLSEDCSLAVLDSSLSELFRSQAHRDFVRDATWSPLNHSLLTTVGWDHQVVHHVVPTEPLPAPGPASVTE

IC50 (PRMT5 [1]) [nM] | IC50 (PRMT5 [2]) [nM] | IC50 (PRMT5 [3]) [nM] | IC50 [4, 7] [nM] | IC50 [5, 7] [nM] | IC50 ([4]; SDMA in-cell western) [nM] | IC50 ([5]; SDMA in-cell western) [nM] | Structure (SMILES) | MTAP intact/deleted ratio ([5]; SDMA in-cell western) | IC50 [6, 8] [nM] | IC50 ([6]; viability assay) [nM]
50 to 500 | 50 to 500 | < 50 | > 1000 | 100 to 1000 |  |  | Cc1cccc([C@H]2CCCCN2C(=O)C(=O)Nc2cnc(N)c(C)c2)c1 (single isomer, unassigned) [Compound 54] | A (an IC50 ratio greater than or equal to 10 fold) | 1000 to 10000 | 
> 500 | > 500 | 50 to 500 | > 1000 | > 1000 |  |  | Cc1cccc([C@@H]2CCCCN2C(=O)C(=O)Nc2cnc(N)c(C)c2)c1 (single isomer, unassigned) [Compound 57] | C (an IC50 ratio of less than 3 fold) | > 10000 | 
> 500 | > 500 | > 500 | > 1000 | > 1000 |  |  | CC(=O)N1CCC(c2cccc(C3CCCCN3C(=O)C(=O)Nc3cncc(C)c3)c2)CC1 (single isomer, unassigned) [Compound 73] | C (an IC50 ratio of less than 3 fold) | > 10000 | 
> 500 | > 500 | 50 to 500 |  |  | > 1000 | > 1000 | CC(=O)N1CCC(c2cccc(C3CCCCN3C(=O)C(=O)Nc3cncc(C)c3)c2)CC1 (single isomer, unassigned) [Compound 78] | C (an IC50 ratio of less than 3 fold) |  | > 10000
50 to 500 | 50 to 500 | < 50 | > 1000 | 100 to 1000 |  |  | NC(=O)c1cncc(NC(=O)C(=O)N2CCCC[C@@H]2c2ccccc2)c1 (single isomer, unassigned) [Compound 85] | A (an IC50 ratio greater than or equal to 10 fold) | > 10000 | 
50 to 500 | 50 to 500 | 50 to 500 | > 1000 | > 1000 |  |  | Cc1cncc(NC(=O)C(=O)N2C[C@@H](C)CC[C@@H]2c2cccc(Cl)c2)c1 (single isomer, unassigned) [Compound 87] | C (an IC50 ratio of less than 3 fold) | > 10000 | 
> 500 | > 500 | > 500 | > 1000 | > 1000 |  |  | Cc1cncc(NC(=O)C(=O)N2C[C@H](C)CC[C@H]2c2cccc(Cl)c2)c1 (single isomer, unassigned) [Compound 90] | C (an IC50 ratio of less than 3 fold) | > 10000 | 
50 to 500 | > 500 | 50 to 500 | > 1000 | > 1000 |  |  | Cc1cncc(NC(=O)C(=O)N2C[C@H](C)CCC2c2cccc(F)c2)c1 (single isomer, unassigned) [Compound 93] | C (an IC50 ratio of less than 3 fold) | > 10000 | 
50 to 500 | 50 to 500 | < 50 |  | < 100 | 100 to 1000 |  | CC(=O)N1CCC(c2cccc(C3CCCCN3C(=O)C(=O)Nc3cnc(N)c(C)c3)c2)CC1 (single isomer, unassigned) [Compound 94] | B (an IC50 ratio greater than or equal to 3 fold but lower than 10 fold) |  | 1000 to 10000
50 to 500 | 50 to 500 | < 50 |  |  | > 1000 | 100 to 1000 | CC(=O)N1CCC(c2cccc(C3CCCCN3C(=O)C(=O)Nc3cnc(N)c(C)c3)c2)CC1 (single isomer, unassigned) [Compound 96] | A (an IC50 ratio greater than or equal to 10 fold) |  | > 10000
> 500 | > 500 | 50 to 500 | > 1000 | > 1000 |  |  | NC(=O)c1cncc(NC(=O)C(=O)N2CCCC[C@H]2c2ccccc2)c1 (single isomer, unassigned) [Compound 97] | C (an IC50 ratio of less than 3 fold) | > 10000 | 

More lines, now with the values behind:

Structure (SMILES) | IC50 (PRMT5 [1]) [nM] | IC50 (PRMT5 [2]) [nM] | IC50 (PRMT5 [3]) [nM] | IC50 [4, 7] [nM] | IC50 [5, 7] [nM] | IC50 ([4]; SDMA in-cell western) [nM] | IC50 ([5]; SDMA in-cell western) [nM] | MTAP intact/deleted ratio ([5]; SDMA in-cell western) | IC50 [6, 8] [nM] | IC50 ([6]; viability assay) [nM]
Cc1cc(NC(=O)C(=O)N2CCCC[C@@H]2c2ccncc2)cnc1N (single isomer, unassigned) [Compound 50] | 50 to 500 | 50 to 500 | < 50 | > 1000 | 100 to 1000 |  |  | B (an IC50 ratio greater than or equal to 3 fold but lower than 10 fold) | > 10000 | 
Cc1cc(NC(=O)C(=O)N2CCCC[C@@H]2c2ccccc2)cnc1N (single isomer, unassigned) [Compound 51] | 50 to 500 | 50 to 500 | < 50 | > 1000 | 100 to 1000 |  |  | B (an IC50 ratio greater than or equal to 3 fold but lower than 10 fold) | > 10000 | 
Cc1cc(NC(=O)C(=O)N2CC(C)(C)CCC2c2ccccc2)cnc1N (single isomer, unassigned) [Compound 52, N-(6-amino-5-methylpyridin-3-yl)-2-(5,5-dimethyl-2-phenylpiperidin-1-yl)-2-oxoacetamide] | 50 to 500 | 50 to 500 | < 50 |  |  | 100 to 1000 | < 100 | A (an IC50 ratio greater than or equal to 10 fold) |  | 1000 to 10000
Cc1cc(NC(=O)C(=O)N2CCCC[C@H]2c2ccccc2)cnc1N (single isomer, unassigned) [Compound 55] | > 500 | > 500 | 50 to 500 | > 1000 | > 1000 |  |  | C (an IC50 ratio of less than 3 fold) | > 10000 | 
Cc1cc(NC(=O)C(=O)N2CC(C)(C)CCC2c2ccccc2)cnc1N (single isomer, unassigned) [Compound 58, N-(6-amino-5-methylpyridin-3-yl)-2-(5,5-dimethyl-2-phenylpiperidin-1-yl)-2-oxoacetamide] | > 500 | > 500 | > 500 |  |  | > 1000 | > 1000 | C (an IC50 ratio of less than 3 fold) |  | > 10000
Cc1cc(NC(=O)C(=O)N2C[C@H]3CC[C@H](C3)[C@@H]2c2ccccc2)cnc1N (single isomer, unassigned) [Compound 63] | > 500 | > 500 | > 500 | > 1000 | > 1000 |  |  | C (an IC50 ratio of less than 3 fold) | > 10000 | 
Cc1cc(NC(=O)C(=O)N2C[C@@H]3CC[C@@H](C3)[C@H]2c2ccccc2)cnc1N (single isomer, unassigned) [Compound 64] | 50 to 500 | 50 to 500 | < 50 | > 1000 | < 100 |  |  | A (an IC50 ratio greater than or equal to 10 fold) | > 10000 | 
Cc1cc(NC(=O)C(=O)N2C[C@H]3CC[C@H](C3)[C@H]2c2ccccc2)cnc1N (single isomer, unassigned) [Compound 65] | 50 to 500 | 50 to 500 | 50 to 500 | > 1000 | < 100 |  |  | A (an IC50 ratio greater than or equal to 10 fold) | 1000 to 10000 | 
Cc1cncc(NC(=O)C(=O)N2C[C@H](C)CC[C@H]2c2ccc(N)cc2)c1 (single isomer, unassigned) [Compound 67] | 50 to 500 | 50 to 500 | 50 to 500 | > 1000 | > 1000 |  |  | B (an IC50 ratio greater than or equal to 3 fold but lower than 10 fold) | > 10000 | 
Cc1cncc(NC(=O)C(=O)N2C[C@H](C)CC[C@H]2c2cccs2)c1 (single isomer, unassigned) [Compound 68] | 50 to 500 | 50 to 500 | < 50 | > 1000 | 100 to 1000 |  |  | A (an IC50 ratio greater than or equal to 10 fold) | > 10000 | 
Cc1cc(NC(=O)C(=O)N2CCCC[C@H]2c2cccnc2)cnc1N (single isomer, unassigned) [Compound 69] | 50 to 500 | 50 to 500 | < 50 | > 1000 | 100 to 1000 |  |  | A (an IC50 ratio greater than or equal to 10 fold) | > 10000 | 
C[C@H]1CC[C@@H](c2cccnc2)N(C(=O)C(=O)Nc2cncc(C(N)=O)c2)C1 (single isomer, unassigned) [Compound 104] | 50 to 500 | > 500 | 50 to 500 | > 1000 | > 1000 |  |  | B (an IC50 ratio greater than or equal to 3 fold but lower than 10 fold) | > 10000 | 
